According to US20080103193A1, “Methods for making compositions and compositions for treating pain and cachexia” (priority 2006, published 2008):
Entries after “also recorded” stand apart in the source; their conditions may differ.

Assays:
[1] = cited from earlier work; for psychoactivity relative to THC: compared with Δ9-THC
[2] = cited from earlier work
[3] = Room temperature storage of marijuana biomass, Δ9-THC content; format: physicochemical; settings: 8-month period, room temperature storage at RTI
Protocol: Under DEA Schedule I license (No. RC0288058), two 250-gram shipments of high potency, bulk marijuana biomass were requested from the National Institute of Drug Abuse (NIDA). Both shipments were provided by the Research Triangle Institute (RTI) International, Research Triangle Park, N.C. under contract with NIDA. The first batch (RTI Batch No. 8976-1001-26/University of Mississippi Batch No. 1182/1186) was received and logged in at Aphios on Dec. 17, 2002. This batch was measured by the University of Mississippi's Thad Cochran National Center for the Natural Products Research to have a Δ9-THC content of 8.98%. Table 1 lists the concentration of other cannabinoids per the provided Certificate of Analysis (Dec. 2, 2002). Table 1 also lists HPLC measurements of heat-treated biomass made by Aphios' chemists; the methods and data are detailed below. The biomass was stored in a locked safe at room temperature when not in use. All usage was recorded on a log sheet that was also stored in the same safe.
The second shipment, also from the same batch of high potency marijuana from the U. of Mississippi, was received and logged in at Aphios on Aug. 14, 2003. The second shipment was measured by RTI on Jul. 29, 2003 to have a Δ9-THC content of 6.12% by GLC analysis. […]

## CCCCCc1cc(O)c2c(c1)OC(C)(C)[C@@H]1CCC(CO)=C[C@@H]21 [11-OH-A-9-THC]
[1]
  psychoactivity relative to THC: three times more psychoactive

## C=C(C)[C@@H]1CCC(C)=C[C@H]1c1c(O)cc(CCCCC)cc1O [CBD, cannabidiol]
[1]; in vivo
  psychoactivity: not psychoactive; also recorded: not psychotomimetic in pure form

## CCCCCc1cc(O)c2c(c1)OC(C)(C)[C@@H]1CCC(C)=C[C@@H]21 [Dronabinol]
[2]; oral Dronabinol
  bioavailability (reaches systemic circulation): 6-20%
  time to peak plasma concentrations after dosing: 2 to 4 h
[2]; oral intake of synthetic Δ9-THC capsules
  bioavailability: 6-20%

## CCCCCc1cc(O)c2c(c1)OC(C)(C)[C@@H]1CCC(C)=C[C@@H]21 [Δ9-THC, Δ9-tetrahydrocannabinol]
[3]
  decrease of Δ9-THC content of the marijuana biomass: about 32%

## CCCCCc1cc(O)c2c(c1)OC(C)(C)[C@@H]1CC=C(C)C[C@@H]21 [Δ-8-THC, Δ8-tetrahydrocannabinol]
[1]
  psychoactivity relative to THC: slightly less active
